Measured values: patent publication EP3168211A1, “PHARMACEUTICAL CO-CRYSTALS OF NICLOSAMIDE” (Westfälische Wilhelms-Universität Münster, priority 2015, dated 2017)
Converted amounts (≈) assume the structure as drawn.

Legend:
[1] = male Sprague-Dawley rats; cited from earlier work
physchem = settings: 37 °C, aqueous with cosolvent or surfactant or cyclodextrin, thermodynamic from solid
Experimental: (§1) Solubility Experiments: The quantification of NCL was validated using a Phenomenex Gemini-NX HPLC-UV/vis and a C18 column (250 mm x 4.6 mm, 5 mm particle diameter). […] The considered concentration range of known NCL was in between 0.5-100 µg/mL. The flow rate and the injection volume was set to 1.0 mL/min and 50 µL, respectively. The limit of detection was 0.1 µg/mL and the limit of quantification 0.5 µg/mL. The absorbance was measured at 254 nm. The equilibrium solubility was determined in 40% isopropanol-water medium using a shake-flask method. Accordingly, each solid sample containing 50 mg of NCL was stirred for 24 h in 2.5 mL of the medium at 37°C, and the absorbance was measured at 337 nm. The concentration of the saturated solution was calculated after 24 h which is referred to as the equilibrium solubility of the stable solid form.
(§2) The corresponding equilibrium solubility of NCL, its novel co-crystals and some reference compounds was determined following established procedures. […] In order to allow for a better comparability of the determined solubility values, the amount of NCL actually present in the tested co-crystals was normalized to 50 mg per sample, therefore adjusting the initially weighted sample accordingly.

[2] = for factor: equilibrium solubility relative to pristine NCL; for factor / Solubility at 37° C (24 h) in 40% isopropanol-water mixture: 37°C, 24 h, 40% isopropanol-water; for increase of the equilibrium solubility: result in words, versus pristine NCL; for Solubility at 37° C (24 h) in 40% isopropanol-water mixture: equilibrium solubility, shake-flask, sample normalized to 50 mg of NCL in 2.5 mL
Experimental: as §1, §2

[3] = solubility factor relative to NCL reported by P. Sanphui et al.; weights not normalized to the amount of NCL; cited from earlier work

Row | Molecule | oral bioavailability [1] [%] | solubility at 24 h (physchem) [µg/mL] | factor [2] | increase of the equilibrium solubility [2] | Solubility at 37° C (24 h) in 40% isopropanol-water mixture [2] [µg/mL] | factor* [3]
1 | O=C(Nc1ccc([N+](=O)[O-])cc1Cl)c1cc(Cl)ccc1O [NCL, 2',5-dichloro-4'-nitrosalicylanilide] | 10 | 87.2 (≈ 266 µM) | – | – | – | –
2 | Niclosamide - acetamide [NCL-AA-I] | – | – | 1.4 | moderate increase | – | –
3 | Niclosamide - isoniazide [NCL-IN] | – | – | – | moderate increase | – | –
4 | Niclosamide - isonicotinamide [NCL-IA] | – | – | 1.3 | – | 113.45 | 1.7
5 | Niclosamide - nicotinamide [NCL-NA] | – | – | 1.3 | – | 114.45 | 1.2
